Experimental data: patent publication US9296687B2, “Modulators of HSP70/DnaK function and methods of use thereof” (The Trustees of the University of Pennsylvania, priority 2008, dated 2016)

Tests used:
cathepsin L = test: Western blot of cathepsin L processing; assay type: cell-based, human; details: 20 μM, 24 h
MTT cell viability assay = assay type: cell-based, human; details: human; 20 μM, all tumor cell lines examined; read-out: loss of cell viability
Method: (§1) Cell viability assays were performed using an MTT (methyl thiazolyl tetrazolium) colorimetric assay (Roche Applied Science, Cat. No. 11 465 007 001), with the following modifications. Briefly, cells (1×10^4) were plated into 24 well-assay plates in 0.5 ml media and allowed to attach overnight. […] After the incubation period, 50 μl of the water-soluble MTT labeling reagent [3-[4,5-dimethylthiazol-2-yl]-2,5-diphenyl tetrazolium bromid] were added to the cells, and the cells were incubated for 4 h in a humidified chamber at 37° C. with 5% CO2. The metabolized insoluble formazan crystals were then solubilized using 0.5 ml of the Solubilization solution (10% SDS in 0.01M HCl) per well, and the resulting colored solutions were spectrophotometrically quantified at an absorbance of 570 nm.

tumor cell lines = test: MTT cell viability assay; assay type: cell-based, human
Method: as §1

FaDu tumor xenografts = test: FaDu xenograft, western blot of tumor lysates for p62/SQSTM1 and LC3; assay type: in vivo, nude mice; details: 40 mg/kg intratumoral
NF-κB = test: NF-κB-dependent luciferase reporter in H1299 cells; assay type: cell-based, human
Method: FIG. 4. PES Interferes with HSP70 Actions. […] (B) IP-WB analyses of WCE from PES-treated U2OS osteosarcoma cells reveal a lower bundance of HSP70 complexes containing BAG-1M or APAF1. […] Note evidence of caspase cleavage in cisplatin-treated cells, but not in the presence of PES. […] (D) (left) H1299 cells were transfected with a NF-κB-dependent luciferase reporter. 24 h later, cells were either pretreated with DMSO or the indicated amount of PES for 1 h, followed by the addition of 20 ng/ml of TNFα for 5 h, as specified. Each graphical representation indicates the mean±SD of at least three independent cultures relative to control (DMSO-treated) cells. (right) H1299 cells were treated with 20 μM PES for 5.7 h, followed by treatment with 10 ng/ml TNFα for 20 min. WCE were immunoblotted for the proteins indicated.

[1] = system: MCF7 human breast carcinoma cells; test: MTT assay, PES followed by 17-AAG; assay type: cell-based; details: 5 μM PES 1 h, then 17-AAG 47 h
Method: FIG. 17. PES impairs the proteasome system. (A) Cell-based 20S proteasome activity assay of H1299 or A875 human tumor cells treated with DMSO, 20 μM PES, 100 nM Velcade (proteasome inhibitor), 1 μM 17-AAG (HSP90 inhibitor), 5 μM CQ (lysosome inhibitor), or 20S proteasome inhibitor epigallocatechin gallate (EGCG). Each graphical representation indicates the mean±SD of at least three independent cultures relative to control (DMSO-treated) cells. (B) Cell extracts from SKBR3 human breast carcinoma cells, treated either with 20 μM PES or 1 μM 17-AAG for 24 h, were immunoprecipitated (IP) using anti-HSP70 or anti-HSP90 antibody. […] MTT assays of MCF7 human breast carcinoma cells pretreated with DMSO, or 5 μM PES for 1 h, followed by the addition of indicated amount of 17-AAG for 47 h. The results represent the mean±SD of at least three independent analysis of cultures relative to control (DMSO-treated) cells. […]
Cell viability assays were performed using an MTT (methyl thiazolyl tetrazolium) colorimetric assay (Roche Applied Science, Cat. No. 11 465 007 001), with the following modifications. […] The metabolized insoluble formazan crystals were then solubilized using 0.5 ml of the Solubilization solution (10% SDS in 0.01M HCl) per well, and the resulting colored solutions were spectrophotometrically quantified at an absorbance of 570 nm.

Eμ-Myc transgenic mice = test: Eμ-Myc mouse model of lymphomagenesis; assay type: in vivo
Method: To evaluate the efficacy of PES as a chemopreventative agent, Eμ-Myc transgenic mice were injected every 5 days, starting at 8 weeks of age, with either vehicle or PES (40 mg/kg) prepared in PBS. All animals received a total of 7 injections, either with PES or vehicle. Consequently, no injection was given after day 86. All mice were observed daily for signs of morbidity and the development of lymphoma. All experiments with mice were approved by, and conformed to, the guidelines of the Institutional Animal Care and Use Committee of the Fox Chase Cancer Center. These mice may also be used to advantage to test the beneficial therapeutic combinations of agents and/or treatments described herein.
Beginning at 6 weeks of age, Eμ-myc transgenic mice were treated either with vehicle, 20 mg/kg PES or 20 mg/kg PES-Cl with weekly i.p. injections of tested compound (FIG. 27).

HSP70 = HSP70 (Homo sapiens, UniProt P0DMV8); test: Immunoprecipitation-western blot of HSP70 complexes with co-chaperones and substrate proteins; assay type: cell-based; parameters: endogenous in cells; host or cells: human tumor cell lines (A875, BX-U2OS, U2OS, H1299, MiaPaCa2, HepG2, SKBR3, 293T)
Chain of HSP70 (P0DMV8 whole entry): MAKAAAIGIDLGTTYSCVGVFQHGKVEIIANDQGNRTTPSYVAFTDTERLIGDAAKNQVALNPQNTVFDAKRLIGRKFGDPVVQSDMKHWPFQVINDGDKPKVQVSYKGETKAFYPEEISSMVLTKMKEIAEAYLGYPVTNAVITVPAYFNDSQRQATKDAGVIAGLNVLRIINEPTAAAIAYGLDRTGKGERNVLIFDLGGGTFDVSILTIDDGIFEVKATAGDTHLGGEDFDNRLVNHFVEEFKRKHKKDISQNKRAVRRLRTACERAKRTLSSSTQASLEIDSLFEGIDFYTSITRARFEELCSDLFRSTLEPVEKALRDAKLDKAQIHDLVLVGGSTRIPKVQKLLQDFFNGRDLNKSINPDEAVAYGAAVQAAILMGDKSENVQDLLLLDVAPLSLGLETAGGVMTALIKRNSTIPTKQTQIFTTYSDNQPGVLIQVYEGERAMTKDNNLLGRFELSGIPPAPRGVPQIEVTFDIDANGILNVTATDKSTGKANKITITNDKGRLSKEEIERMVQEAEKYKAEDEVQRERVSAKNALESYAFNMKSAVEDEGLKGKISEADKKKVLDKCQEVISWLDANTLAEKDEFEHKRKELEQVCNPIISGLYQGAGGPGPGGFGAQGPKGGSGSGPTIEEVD

DnaK = DnaK (Escherichia coli, UniProt P0A6Y8); test: Identification of B-PES interacting protein in bacteria by LC-tandem MS; details: E. coli DH5α, 50 μM B-PES, 3 h
Chain of DnaK (P0A6Y8 whole entry): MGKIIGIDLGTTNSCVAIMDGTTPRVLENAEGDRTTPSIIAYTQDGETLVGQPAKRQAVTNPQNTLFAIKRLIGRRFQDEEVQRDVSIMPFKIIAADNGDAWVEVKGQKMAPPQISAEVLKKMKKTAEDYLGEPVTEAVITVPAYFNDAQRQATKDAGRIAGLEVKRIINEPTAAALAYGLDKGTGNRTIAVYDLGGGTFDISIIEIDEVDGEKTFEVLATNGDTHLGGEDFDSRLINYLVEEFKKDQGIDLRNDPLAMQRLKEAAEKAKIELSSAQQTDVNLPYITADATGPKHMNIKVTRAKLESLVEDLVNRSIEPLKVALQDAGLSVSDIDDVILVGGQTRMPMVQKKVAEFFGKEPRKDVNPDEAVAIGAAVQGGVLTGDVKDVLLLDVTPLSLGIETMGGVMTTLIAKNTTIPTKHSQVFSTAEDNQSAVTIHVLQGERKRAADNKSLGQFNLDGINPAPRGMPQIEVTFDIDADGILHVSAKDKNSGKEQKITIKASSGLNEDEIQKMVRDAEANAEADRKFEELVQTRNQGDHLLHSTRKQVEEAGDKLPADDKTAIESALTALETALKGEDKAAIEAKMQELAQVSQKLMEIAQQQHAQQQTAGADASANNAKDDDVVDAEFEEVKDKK

Question: With `NS(=O)(=O)C#Cc1ccccc1` [PES, 2-Phenylethynesulfonamide] as the compound, how does the “processing of cathepsin L” value (cathepsin L) read?
Answer: The value was “accumulation of the precursor pro-cathepsin L and a markedly reduced abundance of the smaller, mature form of the enzyme”.

Question: What about the cytotoxicity at 20 μM (MTT cell viability assay) of the same compound?
Answer: The cytotoxicity at 20 μM was greater than 50%.

Question: What about the IC50 (tumor cell lines; Homo sapiens, various tumor cell lines, read-out: half maximal concentration to exert cytotoxic effect (IC50)) of the same compound?
Answer: Its IC50 is 4 to 10 µM.

Question: And the “cell viability, dose response” value (tumor cell lines; all tumor cell lines examined)?
Answer: Its value is “dose-dependent loss of cell viability”.

Question: What about the “LC3 in detergent-insoluble tumor fractions” value (FaDu tumor xenografts) of the same compound?
Answer: The value was “accumulated LC3 in the detergent-insoluble fractions”.

Question: And the “p62/SQSTM1 abundance and oligomerization in tumor” value (FaDu tumor xenografts; 24 and 48 hr)?
Answer: Its value is “increased p62/SQSMT1 abundance and oligomerization”.

Question: And the “unstimulated NF-κB activity” value (NF-κB)?
Answer: The value was “inhibited unstimulated NF-κB activity in a dose-dependent manner”.

Question: And the “NF-κB activation stimulated by TNFα” value (NF-κB; TNFα)?
Answer: Its value is “inhibited NF-κB activation”.

Question: What about the “cell killing by 17-AAG” value [1] of the same compound?
Answer: The value was “sensitizes cells to cell killing by 17-AAG”.

Question: And the tumor development (Eμ-Myc transgenic mice; 40 mg/kg i.p. once every five days for 30 days)?
Answer: Its tumor development is “markedly impaired tumor development”.

Question: What about the “overall mean survival time” value (Eμ-Myc transgenic mice; 40 mg/kg intra-peritoneally every 5 days for 30 days) of the same compound?
Answer: The value was greater than 140 days.

Question: And the “abundance of HSP70/BAG-1S complex” value (HSP70)?
Answer: The value was “no detectable change”.

Question: What about the “abundance of HSP70/HSP90 complexes” value (HSP70) of the same compound?
Answer: Its value is “no change in the abundance of HSP70/HSP90 complexes”.

Question: What about the “HSP70 in association with CHIP, HSP40 and APAF1” value (HSP70; 20 μM, 24 h) of the same compound?
Answer: Its value is “less HSP70 in association with CHIP, HSP40 and APAF1”.

Question: What about the “HSP70 interaction with viral T antigen” value (HSP70; 293 cells with SV40 T antigen, 20 μM) of the same compound?
Answer: Its value is “interfered with HSP70 and viral T antigen interactions”.

Question: And the “LAMP2 in a complex with HSP70” value (HSP70; A875, MiaPaCa2, 20 μM, 24 h)?
Answer: The value was “significantly reduced the amount of LAMP2 in a complex with HSP70”.

Question: And the “complexes containing p53 and BAK or HSP70” value (HSP70; A875 and HepG2 cells, PES 20 μM, with or without cisplatin 50 μM)?
Answer: The value was “not observed”.

Question: What about the “interaction between HSP70 and BAG-1M” value (HSP70; H1299, U2OS) of the same compound?
Answer: Its value is “clear decrease”.

Question: What about the “HSP70 interaction with integrin α5 and integrin β1” value (HSP70; H1299 cells) of the same compound?
Answer: Its value is “reduced HSP70 and integrin α5 and integin β1 interactions”.

Question: And the “interaction between monomeric p62/SQSTM1 and HSP70” value (HSP70; MiaPaCa2, A875)?
Answer: The value was “attenuated the interaction”.

Question: And the “interaction with DnaK” value (DnaK)?
Answer: Its value is “interacts with DnaK”.
